Data: EP4692071A1, “PHOTOCHROMIC COMPOUND, NAPHTHOL DERIVATIVE, CURABLE COMPOSITION, OPTICAL ARTICLE, LENS, AND EYEGLASS” (TOKUYAMA CORPORATION, priority 2023, dated 2024)
Several values for one entry are separate records, joined by “and”; a condition that tells them apart may be missing. Equal values may be shown once.

What was measured:
Format in all cases: physicochemical
[1] = Maximum absorption wavelength (λmax) after color development, spectrophotometer MCPD3000; conditions: for Maximum absorption wavelength: photochromic laminate prepared by coating method, after color development
How it was run: (§1)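 Read-out: absorbance at λmax, multichannel photodetector spectrophotometer. Colour density = ε(240) − ε(0), 240 s light, 23°C. τ1/2 = time for ε(240) − ε(0) to halve after light off. Residual rate compares density before and after 90 h xenon weathering.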

[2] = 23°C color optical density (A23): absorbancy difference ε(240)-ε(0) after 240 s light irradiation at 23°C; conditions: 240 s irradiation
How it was run: as §1

[3] = 35°C color optical density (A35): absorbancy difference ε(240)-ε(0) after 240 s light irradiation at 35°C; conditions: 240 s irradiation
How it was run: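 A photochromic cured product was irradiated with light at 35°C for 240 seconds. The 35°C color optical density (A35) was the absorbancy after irradiation {ε(240)} minus the absorbancy without irradiation ε(0), read at the first and second absorption wavelengths. It served as an indicator of color optical density.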

[4] = High-temperature color development rate (A35/A23×100), temperature dependency; conditions: for A35/A23 *100: photochromic laminate prepared by coating method
How it was run: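 Color optical density was taken as the absorbance after 240 seconds of light irradiation, ε(240), minus the absorbance without irradiation, ε(0), at the absorption maximum. It was measured at 23°C (A23) and at 35°C (A35), and the ratio A35/A23×100 served as the high-temperature color development rate, showing temperature dependency.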

[5] = 23°C color fading half-life τ1/2 after 240 s light irradiation
Experimental: • [1] Maximum Absorption Wavelength (λmax): The maximum absorption wavelength after color development, measured using a spectrophotometer (instantaneous multichannel photodetector MCPD3000) manufactured by Otsuka Electronics Co., Ltd. was used as an indicator for the color tone during the color development. • [2] 23°C Color Optical Density (A23): A difference between an absorbancy measured after light irradiation at 23°C for 240 seconds {ε(240)} and an absorbancy without light irradiation ε(0) at the maximum absorption wavelength was used as an indicator for the color optical density. […] 35°C Color Optical Density (A35): A difference between an absorbancy measured after light irradiation at 35°C for 240 seconds {ε(240)} and an absorbancy without light irradiation ε(0) at the first and second absorption wavelengths was used as an indicator for the color optical density. […] 23°C color fading half-life [τ1/2 (sec.)]: A time required for the absorbancy of the sample at the maximum absorption wavelength to decrease to 1/2 of {ε(240)-ε(0)} when the light irradiation is terminated after the light irradiation at 23°C for 240 seconds, was used as an indicator for the color fading speed. The shorter this time, the higher the color fading speed. • [6] Residual rate (A90/A0×100): The obtained photochromic plastic lens was subjected to accelerated deterioration using a xenon weather meter X25 manufactured by Suga Test Instruments Co., Ltd. for 90 hours. Subsequently, the color optical density was evaluated before and after the test, then a color optical density before the test (A0) and a color optical density after the test (A90) were measured, and a ratio (A90/A0) was defined as a residual rate. The residual rate was used as an indicator for a color developing durability. The higher the residual rate, the higher the color developing durability.

[6] = Residual rate (A90/A0×100) after 90 h accelerated deterioration in xenon weather meter X25, color developing durability; conditions: for Residual rate (%): xenon weather meter 90 hours; for Residual rate: photochromic laminate prepared by coating method, after 90 h accelerated deterioration
How it was run: as §1

[7] = photochromic laminate by coating method, 40 µm photochromic layer on thiourethane lens, 0.25 mmol compound per 100 g monomers
[8] = photochromic laminate by coating method, at the maximum absorption wavelength
[9] = photochromic laminate by coating method
[10] = photochromic laminate by coating method, at 522 nm absorption maximum
[11] = photochromic laminate by coating method, at 615 nm absorption maximum
[12] = binder sheet (binder method), urethaneurea resin photochromic layer between polycarbonate sheets, 0.25 mmol per 100 parts by mass resin
[13] = cured product by kneading method, 1 mm

| SMILES | Maximum absorption wavelength (nm) [1, 7] | A23 (-) [2, 8] | A35 (-) [3, 9] | A35/A23 *100 (%) [4, 9] | 23°C color fading half-life [5] | Residual rate (%) [6, 9] | also measured |
| --- | --- | --- | --- | --- | --- | --- | --- |
| CCCCN(c1ccccc1)c1cc2c3c(c4c(c2cc1OC)OC(c1ccc(OC)cc1)(c1ccc(OCCC)cc1)C=C4)C(CC)(CC)c1cc(OC(F)(F)F)ccc1-3 (stereo not shown) [Example 51 Formula (117)] | 501 nm | 0.98 - | 0.61 - | 62% | 0.633 min | 75% | – |
| CCCCN(c1ccc(F)cc1)c1cc2c3c(c4c(c2cc1OC)OC(c1ccc(OC)cc1)(c1ccc(OC)cc1)C=C4)C(CCCCOC)(CCCCOC)c1ccccc1-3 [Example 16 Formula (77)] | 498 nm | 1.25 - | 0.84 - | 67% | 1.2 min | 80% | – |
| CCCc1ccc(C2(c3ccc(OC)cc3)C=Cc3c4c(c5cc(N6CCc7ccccc76)c(OC)cc5c3O2)-c2ccc(-c3ccc(C(F)(F)F)cc3)cc2C4(CCOC)CCOC)cc1 (stereo not shown) [Formula (85A)] | – | – | – | – | 0.933 min | – | Maximum absorption wavelength [1]: 530 nm; A35/A23 *100 [4]: 69%; Residual rate [6]: 65% |
| COCCCCC1(CCCCOC)c2ccccc2-c2c1c1c(c3cc(C)c(N(C)c4ccccc4)cc23)OC(c2ccc(C)cc2)(c2ccc(OC)cc2)C=C1 (stereo not shown) [Example 5 Formula (43)] | 442 nm | 1.19 - | 0.79 - | 66% | 1.5 min | 73% | – |
| CCCC1(CCC)c2ccccc2-c2c1c1c(c3cc(OC)c(N(C)c4ccccc4)cc23)OC(c2ccc(OC)cc2)(c2ccc(N(c3ccccc3)c3ccccc3)cc2)C=C1 (stereo not shown) [Example 21 Formula (87)] | 524 nm | 1.26 - | 0.87 - | 69% | 1.62 min | 80% | – |
| CCCCC1(CCCC)c2cc(C(F)(F)F)ccc2-c2c1c1c(c3cc(C)c(N4CCc5ccccc54)cc23)OC(c2ccc(OC)cc2)(c2ccc(OC)c(C)c2)C=C1 (stereo not shown) [Formula (64A)] | – | – | – | – | 1.1 min | – | Maximum absorption wavelength [1]: 523 nm; A35/A23 *100 [4]: 65%; Residual rate [6]: 64% |
| CCCC1(CCC)c2cc(C)ccc2-c2c1c1c(c3cc(OC)c(N(C)c4ccccc4)cc23)OC(c2ccc(OC)cc2)(c2ccc(OC)cc2)C=C1 [Example 18 Formula (81)] | 493 nm | 1.25 - | 0.88 - | 70% | 1.63 min | 78% | – |
| CCCC1(CCC)c2ccccc2-c2c1c1c(c3cc(OC)c(N(c4ccccc4)c4ccccc4)cc23)OC(c2ccc(OC)cc2)(c2ccc(N3CCOCC3)cc2)C=C1 (stereo not shown) [Example 7 Formula (50)] | – | – | – | 62% | 0.733 min | – | Maximum absorption wavelength (nm) ([1]; photochromic laminate by coating method, 40 µm photochromic layer on thiourethane lens, 0.25 mmol compound per 100 g monomers, at 522 nm absorption maximum): 522 nm; Maximum absorption wavelength (nm) ([1]; photochromic laminate by coating method, 40 µm photochromic layer on thiourethane lens, 0.25 mmol compound per 100 g monomers, at 615 nm absorption maximum): 615 nm; A23 (-) ([2]; photochromic laminate by coating method, at the maximum absorption wavelength, at 522 nm absorption maximum): 1.19 -; A23 (-) ([2]; photochromic laminate by coating method, at the maximum absorption wavelength, at 615 nm absorption maximum): 1.14 -; A35 (-) [3, 10]: 0.74 -; A35 (-) [3, 11]: 0.71 -; Residual rate (%) [6, 10]: 77%; Residual rate (%) [6, 11]: 76% |
| CCCOc1ccc(C2(c3ccc(OC)cc3)C=Cc3c4c(c5cc(N6CCc7ccccc76)c(C)cc5c3O2)-c2ccccc2C4(CCC)CCC)cc1 (stereo not shown) [Formula (31A)] | – | – | – | – | 1.05 min | – | Maximum absorption wavelength [1]: 520 nm; A35/A23 *100 [4]: 65%; Residual rate [6]: 67% |
| CCCC1(CCC)c2ccccc2-c2c1c1c(c3cc(OC)c(N(c4ccccc4)c4ccccc4)cc23)OC(c2ccc(C)cc2)(c2ccc(N(C)c3ccccc3)cc2)C=C1 (stereo not shown) [Example 22 Formula (89)] | 530 nm | 1.51 - | 1.03 - | 68% | 1.25 min | 76% | – |
| COc1ccc(C2(c3ccc(OC)cc3)C=Cc3c4c(c5cc(N6CCOc7ccccc76)c(OC)cc5c3O2)-c2ccccc2C4(C)C)cc1 [Example 19 Formula (83)] | 515 nm | 1.34 - | 0.90 - | 67% | – | 77% | Maximum absorption wavelength (nm) [1, 12]: 515 nm; Maximum absorption wavelength (nm) ([1]; photochromic cured product by kneading method, 1 mm thick thiourethane, 0.106 mmol per 100 g monomers): 519 nm; A23 (-) ([2]; binder sheet (binder method)): 1.36 -; A23 (-) [2, 13]: 1.37 -; A35 (-) ([3]; binder sheet (binder method)): 0.91 -; A35 (-) [3, 13]: 0.91 -; A35/A23 *100 (%) ([4]; binder sheet (binder method)): 67%; A35/A23 *100 (%) [4, 13]: 67%; Residual rate (%) ([6]; binder sheet (binder method)): 91%; Residual rate (%) [6, 13]: 83% |
| COCCOCCOCCC1(CCOCCOCCOC)c2cc(-c3ccc(OC(C)C)cc3)ccc2-c2c1c1c(c3cc(OC)c(N(C)c4ccc(C(F)(F)F)cc4)cc23)OC(c2ccc(OC)cc2)(c2ccc(OC)cc2)C=C1 [Example 53 Formula (121)] | 457 nm and 592 nm | 0.75 - and 0.82 - | 0.49 - and 0.54 - | 66% | – | 76% | – |
| CCCOc1ccc(C2(c3ccc(OCCC)cc3)C=Cc3c4c(c5cc(N6CCOc7cc(C)ccc76)c(OC)cc5c3O2)-c2ccc(-c3ccc(C(F)(F)F)cc3)cc2C4(CCOC)CCOC)cc1 [Example 48 Formula (106)] | 513 nm | 1.36 - | 0.88 - | 65% | – | 77% | Maximum absorption wavelength (nm) [1, 12]: 513 nm; A23 (-) ([2]; binder sheet (binder method)): 1.39 -; A35 (-) ([3]; binder sheet (binder method)): 0.90 -; A35/A23 *100 (%) ([4]; binder sheet (binder method)): 65%; Residual rate (%) ([6]; binder sheet (binder method)): 93% |
